Reference: patent US6686336B2, “N-terminal D(-)-penicillamine peptides as aldehyde sequestration agents” (Federal Government as represented by the Department of …, priority 2000, dated 2004)

Experiments:
[1] = cited from earlier work; for AcH sequestration (trapping) in vivo: earlier studies (Nagasawa et al., J. Med. Chem, 1987)
[2] = Test A: Sequestration of AcH in a cell-free system; assay type: biochemical; conditions: AcH 40 nmol, compound 400 nmol, 4.0 mM DTT, pH 7.4, 30 minute incubation at 37° C.; compared with 1 (positive control); FIG. 3
Experimental: Test A: Sequestration of AcH in a cell-free system. AcH (40 nmol) was incubated without (control) and with representative compounds of the invention (400 nmol) in a reaction mixture containing 4.0 mM dithiothreitol (DTT) and 40 mM potassium phosphate buffer (pH 7.4) in a total volume of 1.2 ml. The AcH remaining after a 30 minute incubation period at 37° C. was quantified by headspace GC analysis. DTT was included in the reaction mixture to maintain the thiols in their reduced state.

[3] = tested on: rat hepatocytes; assay: Test B: Sequestration of AcH in a hepatocyte system; assay type: cell-based; conditions: ethanol 20 mM; for lowering of the concentration of ethanol-derived AcH: compound 1.0 mM (1/20 molar concentration of ethanol), at two hrs, vs ethanol control without dipeptide, FIG. 4
Experimental: Test B: Sequestration of AcH in a hepatocyte system.
Hepatocytes from male Wistar rats were isolated and cultured under conditions previously described. On culture day two, ethanol and representative compounds of the invention were added to the culture medium to final concentrations of 20 mM and 1.0 mM, respectively. After 2 hours, 1.0 ml of medium was removed and added to a semicarbazide/sodium azide mixture and frozen until assayed for AcH by gas chromatography. AcH was measured before the addition of ethanol and representative compounds of the invention and 2 hours after incubation, and the values compared against ethanol control without dipeptides. In experiments with cyanamide (to inhibit AlDH), the cyanamide was added with the ethanol to give a final concentration in the culture medium of 50 mM. Results are depicted in FIGS. 4 and 5.

Row | SMILES | melting point | AcH sequestering activity (AcH remaining by headspace GC) [2] | also measured
1 | CC(C)[C@H](NC(=O)[C@H](N)C(C)(C)S)C(=O)O.Cl | 263 to 265.5 °C (dec.) | – | –
2 | CC(C)(S)[C@@H](N)C(=O)O [Compound 1, D(−)-penicillamine] | – | – | AcH sequestration (trapping) in vivo [1]: best β-mercapto-α-amino acid sequestration agents for AcH in vivo
3 | C[C@@H](O)[C@H](N)C(=O)O [threonine] | – | totally without AcH sequestering activity | –
4 | CSCC[C@H](N)C(=O)O [Methionine] | – | totally without AcH sequestering activity | –
5 | N[C@@H](CO)C(=O)O [serine] | – | totally without AcH sequestering activity | –
6 | NC(C(=O)O)C1(S)CCCC1 (racemic) [Compound 2, β,β-tetramethylene-DL-cysteine] | – | – | AcH sequestration (trapping) in vivo [1]: best β-mercapto-α-amino acid sequestration agents for AcH in vivo
7 | CC(C)(S)[C@@H](N)C(=O)NCCC(=O)O.Cl [Compound 6d, D-Penicillamyl-β-alanine Hydrochloride] | 71 to 75 °C | – | lowering of the concentration of ethanol-derived AcH [3]: 84%
8 | N[C@@H](CCS)C(=O)O [L-Homocysteine] | – | comparable to 1 | AcH sequestration (trapping) in vivo [1]: not to be an effective AcH-trapping agent in vivo; metabolism in vivo ([1]; given as reason for lack of AcH trapping): metabolized too rapidly in vivo
9 | CC(N)(CC(=O)[C@H](N)C(C)(C)S)C(=O)O.Cl (stereo partly drawn) [Compound 6c, D-Penicillamyl-α-aminoisobutyric acid hydrochloride] | 145 to 148 °C | – | –
10 | N#CN [cyanamide] | – | – | increase in ethanol-derived AcH ([3]; cyanamide in incubation medium (50 mM), control without dipeptide, FIG. 5): 45 fold
11 | CC(C)(S)[C@@H](N)C(=O)NCC(=O)O.Cl [Compound 6a, D-Penicillamylglycine Hydrochloride] | 67 to 71 °C | – | lowering of the concentration of ethanol-derived AcH [3]: 79%; reduction of ethanol-derived AcH concentration in presence of cyanamide ([3]; compound 1.0 mM, cyanamide (AlDH inhibitor) 50 mM, 2 hours, vs control without dipeptide, FIG. 5): 33%
